Test results as given in patent US20200405868A1, “GEL-FORMING POLYPEPTIDES” (priority 2018, published 2020).
“Also recorded” adds a separate entry of the source. *1 amine or outer side, *2 acyl side, *3 side chain or, on linkers, in order; H or OH if unused. Where a SMILES comes first, the peptide text is derived from it. Where no end group is shown, it is not given here. [ ]: non-standard residue; d: D form. The star is where a group is joined. FITC = O=C1OC2(c3ccc(O)cc3Oc3cc(O)ccc32)c2ccc(NC(=S)*)cc21; K(Pal) = CCCCCCCCCCCCCCCC(=O)NCCCC[C@H](N[*:1])C(=O)[*:2]; d2Nal = N[C@H](Cc1ccc2ccccc2c1)C(=O)O; Palmitoyl = CCCCCCCCCCCCCCCC(=O)*

Assay: Compound gel-forming ability in water (visual inspection, tube tapping assay, tilted tube assay);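 note: peptides mixed with de-ionized water at about 22-25 °C, judged after 20 min by eye plus tube tapping (10 taps, moves counted) and 90° tilt mobility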
Type: physicochemical
Conditions: for gel formation at 3% w/w: 3% w/w in water; for gel formation at 6% w/w: 6% w/w in water; for gel formation at 11% w/w: 11% w/w in water; for Physical property at 11% w/w: 11% w/w in aqueous solution, room temperature; for gel formation in aqueous solution, 11% / propensity to form gels, wild-type counterparts, 11% / propensity to form gels, chimeric or mutated polypeptides, 11%: 11% w/w; for propensity to form gels, wild-type counterparts, 6% / gel formation in aqueous solution, 6% / propensity to form gels, chimeric or mutated polypeptides, 6%: 6% w/w; for gel formation at 20% w/w: 20% w/w in water

Compound | gel formation at 11% w/w | Physical property at 11% w/w (Table 1) | gel formation in aqueous solution, 11% (Table 3) | gel formation in aqueous solution, 6% (Table 3) | further results
FTLSLDVPTNIMNLLFNIAKAKNLRAQAAANAHLMAQI-NH2 [SEQ ID NO:10, reference compound] | semisolid gel | SS (SS for semisolid gel) | SS (SS for semisolid gel) | – | gel formation at 3% w/w: liquid gel; gel formation at 6% w/w: semisolid gel; gel formation in aqueous solution, 20% (Table 3, 20% w/w): SS (SS for semisolid gel); propensity to form gels, wild-type counterparts, 6% (Table 5): SS (An ability to form semisolid gel is represented by an SS); propensity to form gels, wild-type counterparts, 11% (Table 5): SS (An ability to form semisolid gel is represented by an SS)
Pal-HSYFFGLM-NH2 [SEQ ID NO:253] | – | – | SS (SS for semisolid gel) | AS/IS (AS/IS for aqueous solution or insoluble) | propensity to form gels, chimeric or mutated polypeptides, 6% (Table 5): AS/IS; propensity to form gels, chimeric or mutated polypeptides, 11% (Table 5): SS (An ability to form semisolid gel is represented by an SS)
Pal-KVQKLAHQIYQFTDK(Aib)SAPVDPSSPHSY-NH2 [SEQ ID NO:125] | – | – | – | – | Physical property at 11% w/w (Table 2): AS/IS (AS/IS for aqueous solution or insoluble)
Pal-HSYEEMQRR-NH2 [SEQ ID NO:250] | semisolid gel | – | SS (SS for semisolid gel) | AS/IS (AS/IS for aqueous solution or insoluble) | propensity to form gels, chimeric or mutated polypeptides, 6% (Table 5): AS/IS; propensity to form gels, chimeric or mutated polypeptides, 11% (Table 5): SS (An ability to form semisolid gel is represented by an SS)
Pal-HSYAAVDTSSEITTKDLKEKKEVVEEAEN-NH2 [SEQ ID NO:240] | semisolid gel | – | SS (SS for semisolid gel) | AS/IS (AS/IS for aqueous solution or insoluble) | propensity to form gels, chimeric or mutated polypeptides, 6% (Table 5): AS/IS; propensity to form gels, chimeric or mutated polypeptides, 11% (Table 5): SS (An ability to form semisolid gel is represented by an SS)
CSNLSTCVLGKLSQELHKLQTYPRTNTGSGTP-NH2 [SEQ ID NO:28, reference compound] | does not form gel | AS/IS | – | – | gel formation in aqueous solution, 20% (Table 3, 20% w/w): AS/IS (AS/IS for aqueous solution or insoluble); propensity to form gels, wild-type counterparts, 11% (Table 5): AS/IS
Pal-HSYGTFTSDVSSYLEGQAAKEFIAWLVKGR-NH2 (Palmitoyl-HSYGTFTSDVSSYLEGQAAKEFIAWLVKGR-NH2; SMILES CCCCCCCCCCCCCCCC(=O)N[C@@H](Cc1c[nH]cn1)C(=O)N[C@@H](CO)C(=O)N[C@@H](Cc1ccc(O)cc1)C(=O)NCC(=O)N[C@H](C(=O)N[C@@H](Cc1ccccc1)C(=O)N[C@H](C(=O)N[C@@H](CO)C(=O)N[C@@H](CC(=O)O)C(=O)N[C@H](C(=O)N[C@@H](CO)C(=O)N[C@@H](CO)C(=O)N[C@@H](Cc1ccc(O)cc1)C(=O)N[C@@H](CC(C)C)C(=O)N[C@@H](CCC(=O)O)C(=O)NCC(=O)N[C@@H](CCC(N)=O)C(=O)N[C@@H](C)C(=O)N[C@@H](C)C(=O)N[C@@H](CCCCN)C(=O)N[C@@H](CCC(=O)O)C(=O)N[C@@H](Cc1ccccc1)C(=O)N[C@H](C(=O)N[C@@H](C)C(=O)N[C@@H](Cc1c[nH]c2ccccc12)C(=O)N[C@@H](CC(C)C)C(=O)N[C@H](C(=O)N[C@@H](CCCCN)C(=O)NCC(=O)N[C@@H](CCCNC(=N)N)C(N)=O)C(C)C)[C@@H](C)CC)C(C)C)[C@@H](C)O)[C@@H](C)O) [SEQ ID NO:221] | – | – | – | SS (SS for semisolid gel) | propensity to form gels, chimeric or mutated polypeptides, 6% (Table 5): SS (An ability to form semisolid gel is represented by an SS)
DRVYIHPF-NH2 [SEQ ID NO:16, reference compound] | – | AS/IS | – | – | –
Y-(D-Met)-FHLMD-NH2 [SEQ ID NO:21, reference compound] | do not form gels | AS/IS | AS/IS (AS/IS for aqueous solution or insoluble) | AS/IS (AS/IS for aqueous solution or insoluble) | gel formation at 6% w/w: do not form gels; propensity to form gels, wild-type counterparts, 6% (Table 5): AS/IS; propensity to form gels, wild-type counterparts, 11% (Table 5): AS/IS
HAEGTFTSDVSSYLEGQAAK(YSHPSS-Pal)EFIAWLVRGRG [SEQ ID NO:269] | – | – | SS (SS for semisolid gel) | – | gel formation in aqueous solution, 20% (Table 3, 20% w/w): SS (SS for semisolid gel); propensity to form gels, chimeric or mutated polypeptides, 11% (Table 5): SS (An ability to form semisolid gel is represented by an SS); propensity to form gels, chimeric or mutated polypeptides, 20% (Table 5, 20% w/w): SS (An ability to form semisolid gel is represented by an SS)
miniPEG-K(PAL)GCRFGTCTVQKLAHQIYQFTDKDVAPRSKISP(D-Gln)GY-NH2 [SEQ ID NO:48] | semisolid gel | SS (SS for semisolid gel) | – | – | –
(G1p)HWSY-(D-2Nal)-LRPG-NH2 [SEQ ID NO:15, reference compound] | liquid gel | – | – | AS/IS (AS/IS for aqueous solution or insoluble) | propensity to form gels, wild-type counterparts, 6% (Table 5): AS/IS
Pal-HSDAAVDTSSEITTKDLKEKKEVVEEAEN-NH2 [SEQ ID NO:267] | semisolid gel | – | SS (SS for semisolid gel) | SS (SS for semisolid gel) | propensity to form gels, chimeric or mutated polypeptides, 6% (Table 5): SS (An ability to form semisolid gel is represented by an SS); propensity to form gels, chimeric or mutated polypeptides, 11% (Table 5): SS (An ability to form semisolid gel is represented by an SS)
Pal-SSPHSY-miniPEG-SYSMEHFRWGKPVGKKRRPVKVYP-OH [SEQ ID NO:225] | – | – | AS/IS (AS/IS for aqueous solution or insoluble) | – | gel formation in aqueous solution, 20% (Table 3, 20% w/w): SS (SS for semisolid gel)
Pal-HSY-(D-Ala)-GF(D-Leu)-NH2 [SEQ ID NO:213] | – | – | – | – | gel formation at 3% w/w: semisolid gels; gel formation in aqueous solution, 3% (Table 3, 3% w/w): SS (SS for semisolid gel)
HGDGSFSDEMNTILDNLAARDFINWLIQTKITD-OH [SEQ ID NO:12, reference compound] | liquid gel | – | – | AS/IS (AS/IS for aqueous solution or insoluble) | propensity to form gels, wild-type counterparts, 6% (Table 5): AS/IS
(G1p)RPRLSHKGP(Nle)PF-K(Pal)HSY-NH2 [SEQ ID NO:262] | liquid gel | – | – | – | gel formation at 20% w/w: liquid gel; propensity to form gels, chimeric or mutated polypeptides, 3% (Table 5, 3% w/w): AS/IS
IVLSLDVPIGLLQILLEQARARAAREQATTNARILARVGHC-NH2 [SEQ ID NO:31, reference compound] | does not form gel | AS/IS | AS/IS (AS/IS for aqueous solution or insoluble) | – | gel formation at 20% w/w: does not form gel; gel formation in aqueous solution, 20% (Table 3, 20% w/w): AS/IS (AS/IS for aqueous solution or insoluble); propensity to form gels, wild-type counterparts, 11% (Table 5): AS/IS; propensity to form gels, wild-type counterparts, 20% (Table 5, 20% w/w): AS/IS; gel formation at the selected concentration (selected concentration (i.e., at 30%, 20%, 11%, or 6% w/w)): only form aqueous solution or are insoluble
C[C@H](NC(=O)[C@@H](Cc1ccc2ccccc2c1)NC(=O)[C@@H](C)N)C(=O)N[C@@H](Cc1c[nH]c2ccccc12)C(=O)N[C@H](Cc1ccccc1)C(=O)N[C@@H](CCCCN)C(N)=O [SEQ ID NO:8, (D-Ala)-(D-(β-naphthyl))-AAW-(D-Phe)-Lys-NH2, reference compound] (H-[dA][d2Nal]AW[dF]K-NH2) | form self-assembling gels; also recorded: semisolid gel | SS (SS for semisolid gel) | SS (SS for semisolid gel) | SS (SS for semisolid gel) | gel formation at 3% w/w: liquid gel; gel formation at 6% w/w: semisolid gel; propensity to form gels, wild-type counterparts, 6% (Table 5): SS (An ability to form semisolid gel is represented by an SS); propensity to form gels, wild-type counterparts, 11% (Table 5): SS (An ability to form semisolid gel is represented by an SS)
FITC-K(Pal)SSPHSY-miniPEG-GRKKRRQRRRPQ ({FITC-K(Pal)-Ser-Ser-Pro-H2N-Ser-Tyr-miniPEG}-GRKKRRQRRRPQ) [SEQ ID NO:241] | liquid gel | – | – | – | –
Pal-SSPHSY-miniPEG-FLPLIGRVLSGIL-NH2 ({Palmitoyl-Ser-Ser-Pro-H2N-Ser-Tyr-miniPEG}-FLPLIGRVLSGIL-NH2) [SEQ ID NO:243] | semisolid gel | – | SS (SS for semisolid gel) | AS/IS (AS/IS for aqueous solution or insoluble) | –
Pal-VQKLPHSY-NH2 (Palmitoyl-VQKLPHSY-NH2; SMILES CCCCCCCCCCCCCCCC(=O)N[C@H](C(=O)N[C@@H](CCC(N)=O)C(=O)N[C@@H](CCCCN)C(=O)N[C@@H](CC(C)C)C(=O)N1CCC[C@H]1C(=O)N[C@@H](Cc1c[nH]cn1)C(=O)N[C@@H](CO)C(=O)N[C@@H](Cc1ccc(O)cc1)C(N)=O)C(C)C) [SEQ ID NO:117] | – | – | – | – | Physical property at 11% w/w (Table 2): SS (SS for semisolid gel)
YADAIFTNSYRKVLGQLSARKLLQDIMSR-NH2 [SEQ ID NO:35, reference compound] | does not form gel | AS/IS | AS/IS (AS/IS for aqueous solution or insoluble) | – | gel formation at 20% w/w: does not form gel; gel formation in aqueous solution, 20% (Table 3, 20% w/w): AS/IS (AS/IS for aqueous solution or insoluble); propensity to form gels, wild-type counterparts, 11% (Table 5): AS/IS; propensity to form gels, wild-type counterparts, 20% (Table 5, 20% w/w): AS/IS
Ace-K(PAL)FGCRFGTCTVQKLAHQIYQFTDKDKDNVAPRSKISPQGY-NH2 [SEQ ID NO:1] | liquid gel | – | – | AS/IS (AS/IS for aqueous solution or insoluble) | propensity to form gels, wild-type counterparts, 3% (Table 5, 3% w/w): AS/IS; propensity to form gels, wild-type counterparts, 6% (Table 5): AS/IS
Ace-FKFEFKFE-NH2 [SEQ ID NO:141, reference compound] | – | – | – | – | Physical property at 11% w/w (Table 2): SS (SS for semisolid gel)
PFRSVQ-NH2 [SEQ ID NO:37, reference compound] | does not form gel | AS/IS | AS/IS (AS/IS for aqueous solution or insoluble) | – | propensity to form gels, wild-type counterparts, 11% (Table 5): AS/IS
